Laboratory results published in US20060281711A1, “IL-12 modulatory compounds” (Synta Pharmaceuticals Corp., priority 2005, published 2006).
pIC50: −log10 of the molar value.

These compounds were tested on IL-12 (assay: Human in vitro assay: inhibition of IL-12 production in stimulated human PBMC or THP-1 cells (ELISA)). Settings: read-out: IC50 Range (in vitro IC50 for IL-12).
Type: cell-based
Excerpt: The biological activities of a compound of the invention can be evaluated by a number of cell-based assays. One of such assays can be conducted using cells from human peripheral blood mononuclear cells (PBMC) or human monocytic cell line (THP-1). The cells are stimulated with a combination of human interferon-γ (IFNγ) and lipopolysaccharide or a combination of IFNγ and Staphylococcus aureus Cowan I in the presence of a test compound. The level of inhibition of IL-12 production can be measured by determining the amount of p70 by using a sandwich ELISA assay with anti-human IL-12 antibodies. IC50 of the test compound can then be determined. Specifically, PBMC or THP-1 cells are incubated with the test compound. Cell viability was assessed using the bioreduction of MTS [3-(4,5-dimethylthiazol-2-yl)-5-(3-carboxymethoxyphenyl)-2-(4-sulfophenyl)-2H-tetrazolium] (Promega, Madison, Wis.).
8. Reagents. Staphylococcus aureus Cowan I (SAC) was obtained from Calbiochem (La Jolla, Calif.), and lipopolysaccharide (LPS, Serratia marscencens) was obtained from Sigma (St. Louis, Mo.). Human and mouse recombinant IFNγ were purchased from Boehringer Mannheim (Mannheim, Germany) and Pharmingen (San Diego, Calif.), respectively.
9. Human In Vitro Assay. Human PBMC were isolated by centrifugation using Ficoll-Paque (Pharmacia Biotech, Uppsala, Sweden) and prepared in RPMI medium supplemented with 10% fetal calf serum (FCS), 100 U/mL penicillin, and 100 μg/mL streptomycin. PBMC were plated in wells of a 96-well plate at a concentration of 5×10^5 cells/well, and primed by adding IFNγ (30 U/mL) for 22 h and stimulated by adding LPS (1 μg/mL), or by adding IFNγ (100 U/mL) and then stimulated by adding SAC (0.01%). A test pyrimidine compound was dissolved in DMSO, and added to wells of the 96-well plate. The final DMSO concentration was adjusted to 0.25% in all cultures, including the compound-free control. Human THP-1 cells were plated in wells, primed by adding IFNγ (100 U/mL) for 22 h and stimulated by adding SAC (0.025%) in the presence of different concentrations of the pyrimidine compound. Cell-free supernatants were taken 18 h later for measurement of cytokines. Cell viability was assessed using the bioreduction of MTS. Cell survival was estimated by determining the ratio of the absorbance in compound-treated groups versus compound-free control.
10. The supernatant was assayed for the amount of […], IL-12p70, or IL-10 by using a sandwich ELISA with anti-human antibodies, i.e., a Human IL-12 p40 ELISA kit from R&D Systems (Berkeley, Calif.), and a Human IL-12 p70 or IL-10 ELISA kit from Endogen (Cambridge, Mass.). Assays were based on the manufacturer's instructions.
The biological activities of compounds of the invention were tested on human PBMC or THP-1 cells.

`CC1C/C(=N/Nc2cc(N3CCOCC3)nc(OCCN3CCOCC3)n2)c2ccccc21` (centres unmarked) [Compound 6, N-(3-Methyl-indan-1-ylidene)-N′-[6-morpholin-4-yl-2-(2-morpholin-4-yl-ethoxy)-pyrimidin-4-yl]-hydrazine] and `CC1CC/C(=N\Nc2cc(N3CCOCC3)nc(OCCN3CCOCC3)n2)c2ccccc21` (centres unmarked) [Compound 19, N-(4-Methyl-3,4-dihydro-2H-naphthalen-1-ylidene)-N′-[6-morpholin-4-yl-2-(2-morpholin-4-yl-ethoxy)-pyrimidin-4-yl]-hydrazine] cannot be ordered by pIC50: ≤ 6.00 for the first, ≤ 6.00 for the second.

`Cc1ccc2c(c1)/C(=N/Nc1cc(N3CCOCC3)nc(OCCN3CCOCC3)n1)CC2` [Compound 3, N-(6-Methyl-indan-1-ylidene)-N′-[6-morpholin-4-yl-2-(2-morpholin-4-yl-ethoxy)-pyrimidin-4-yl]-hydrazine] and `COc1ccc2c(c1)/C(=N/Nc1cc(N3CCOCC3)nc(OCCN3CCOCC3)n1)CC2` [Compound 9, N-(6-Methoxy-indan-1-ylidene)-N′-[6-morpholin-4-yl-2-(2-morpholin-4-yl-ethoxy)-pyrimidin-4-yl]-hydrazine] cannot be ordered by pIC50: > 6.00 for the first, > 6.00 for the second.

`c1ccc2c(c1)CC/C2=N\Nc1cc(N2CCOCC2)nc(OCCN2CCOCC2)n1` [Compound 4, N-(Indan-1-ylidene)-N′-[6-morpholin-4-yl-2-(2-morpholin-4-yl-ethoxy)-pyrimidin-4-yl]-hydrazine] and `c1ccc2c(c1)CCC/C2=N\Nc1cc(N2CCOCC2)nc(OCCN2CCOCC2)n1` [Compound 11, N-(3,4-Dihydro-2H-naphthalen-1-ylidene)-N′-[6-morpholin-4-yl-2-(2-morpholin-4-yl-ethoxy)-pyrimidin-4-yl]-hydrazine] cannot be ordered by pIC50: ≤ 6.00 for the first, ≤ 6.00 for the second.

`Cc1cc(C)c2c(c1)/C(=N/Nc1cc(N3CCOCC3)nc(OCCN3CCOCC3)n1)CCC2` [Compound 17, N-(5,7-Dimethyl-3,4-dihydro-2H-naphthalen-1-ylidene)-N′-[6-morpholin-4-yl-2-(2-morpholin-4-yl-ethoxy)-pyrimidin-4-yl]-hydrazine] and `Cc1cccc2c1CC/C2=N\Nc1cc(N2CCOCC2)nc(OCCN2CCOCC2)n1` [Compound 7, N-(4-Methyl-indan-1-ylidene)-N′-[6-morpholin-4-yl-2-(2-morpholin-4-yl-ethoxy)-pyrimidin-4-yl]-hydrazine] cannot be ordered by pIC50: > 6.00 for the first, ≤ 6.00 for the second.

`COc1ccc2c(c1)/C(=N/Nc1cc(N3CCOCC3)nc(OCCN3CCOCC3)n1)CCC2` [Compound 14, N-(7-Methoxy-3,4-dihydro-2H-naphthalen-1-ylidene)-N′-[6-morpholin-4-yl-2-(2-morpholin-4-yl-ethoxy)-pyrimidin-4-yl]-hydrazine] and `COc1ccc2c(c1)CCC/C2=N\Nc1cc(N2CCOCC2)nc(OCCN2CCOCC2)n1` [Compound 13, N-(6-Methoxy-3,4-dihydro-2H-naphthalen-1-ylidene)-N′-[6-morpholin-4-yl-2-(2-morpholin-4-yl-ethoxy)-pyrimidin-4-yl]-hydrazine] cannot be ordered by pIC50: > 6.00 for the first, > 6.00 for the second.

`Cc1ccc2occ/c(=N\Nc3cc(N4CCOCC4)nc(OCCN4CCOCC4)n3)c2c1` [Compound 39, N-(6-Methyl-chromen-4-ylidene)-N′-[6-morpholin-4-yl-2-(2-morpholin-4-yl-ethoxy)-pyrimidin-4-yl]-hydrazine] and `Cc1ccc2c(c1)/C(=N/Nc1cc(N3CCOCC3)nc(OCCN3CCOCC3)n1)C(=O)N2` [Compound 1, 5-methyl-3-{[6-morpholin-4-yl-2-(2-morpholin-4-yl-ethoxy)-pyrimidin-4-yl]-hydrazono}-1,3-dihydro-indol-2-one] cannot be ordered by pIC50: > 6.00 for the first, > 6.00 for the second.

`O=[N+]([O-])c1ccc2c(c1)/C(=N/Nc1cc(N3CCOCC3)nc(OCCN3CCOCC3)n1)CCC2` [Compound 15, N-(7-Nitro-3,4-dihydro-2H-naphthalen-1-ylidene)-N′-[6-morpholin-4-yl-2-(2-morpholin-4-yl-ethoxy)-pyrimidin-4-yl]-hydrazine] and `Oc1ccc2c(c1)CCC/C2=N\Nc1cc(N2CCOCC2)nc(OCCN2CCOCC2)n1` [Compound 16, N-(6-Hydroxy-3,4-dihydro-2H-naphthalen-1-ylidene)-N′-[6-morpholin-4-yl-2-(2-morpholin-4-yl-ethoxy)-pyrimidin-4-yl]-hydrazine] cannot be ordered by pIC50: > 6.00 for the first, > 6.00 for the second.

`O=C1OCCN1CCOc1nc(N/N=C2\CCCc3cc(O)ccc32)cc(N2CCOCC2)n1` [Compound 22, 3-(2-{4-[N′-(6-Hydroxy-3,4-dihydro-2H-naphthalen-1-ylidene)-hydrazino]-6-morpholin-4-yl-pyrimidin-2-yloxy}-ethyl)-oxazolidin-2-one] and `COc1ccc2c(c1)CC/C2=N\Nc1cc(N2CCOCC2)nc(OCCN2CCOCC2)n1` [Compound 8, N-(5-Methoxy-indan-1-ylidene)-N′-[6-morpholin-4-yl-2-(2-morpholin-4-yl-ethoxy)-pyrimidin-4-yl]-hydrazine] cannot be ordered by pIC50: > 6.00 for the first, ≤ 6.00 for the second.

`O=S1(=O)CC/C(=N\Nc2cc(N3CCOCC3)nc(OCCN3CCOCC3)n2)c2cc(Cl)ccc21` [Compound 38, N-(6-Chloro-1,1-dioxo-1λ^6-thiochroman-4-ylidene)-N′-[6-morpholin-4-yl-2-(2-morpholin-4-yl-ethoxy)-pyrimidin-4-yl]-hydrazine] and `Clc1ccc2c(c1)/C(=N/Nc1cc(N3CCOCC3)nc(OCCN3CCOCC3)n1)CCS2` [Compound 37, N-(6-Chloro-thiochroman-4-ylidene)-N′-[6-morpholin-4-yl-2-(2-morpholin-4-yl-ethoxy)-pyrimidin-4-yl]-hydrazine] cannot be ordered by pIC50: ≤ 6.00 for the first, > 6.00 for the second.

`CN1C(=O)/C(=N/Nc2cc(N3CCOCC3)nc(OCCN3CCOCC3)n2)c2ccccc21` [Compound 20, 1-Methyl-3-{[6-morpholin-4-yl-2-(2-morpholin-4-yl-ethoxy)-pyrimidin-4-yl]-hydrazono}-1,3-dihydro-indol-2-one] and `c1ccc2c(c1)OC/C2=N\Nc1cc(N2CCOCC2)nc(OCCN2CCOCC2)n1` [Compound 5, N-(Benzofuran-3-ylidene)-N′-[6-morpholin-4-yl-2-(2-morpholin-4-yl-ethoxy)-pyrimidin-4-yl]-hydrazine] cannot be ordered by pIC50: ≤ 6.00 for the first, ≤ 6.00 for the second.

`c1cc2c(o1)CCC/C2=N\Nc1cc(N2CCOCC2)nc(OCCN2CCOCC2)n1` [Compound 41, N-(6,7-Dihydro-5H-benzofuran-4-ylidene)-N′-[6-morpholin-4-yl-2-(morpholin-4-yl-ethoxy)-pyrimidin-4-yl]-hydrazine] and `c1ccc2c(c1)OCC/C2=N\Nc1cc(N2CCOCC2)nc(OCCN2CCOCC2)n1` [Compound 12, N-(Chroman-4-ylidene)-N′-[6-morpholin-4-yl-2-(2-morpholin-4-yl-ethoxy)-pyrimidin-4-yl]-hydrazine] cannot be ordered by pIC50: ≤ 6.00 for the first, ≤ 6.00 for the second.

`CC(C)(O)CCc1nc(N/N=C2\CCCc3cc(O)ccc32)cc(N2CCOCC2)n1` [Compound 24, 5-{[2-(3-Hydroxy-3-methyl-butyl)-6-morpholin-4-yl-pyrimidin-4-yl]-hydrazono}-5,6,7,8-tetrahydro-naphthalen-2-ol] and `c1ccc2c(c1)CC(=NNc1cc(N3CCOCC3)nc(OCCN3CCOCC3)n1)C2` [Compound 10, N-(Indan-2-ylidene)-N′-[6-morpholin-4-yl-2-(2-morpholin-4-yl-ethoxy)-pyrimidin-4-yl]-hydrazine] cannot be ordered by pIC50: ≤ 6.00 for the first, ≤ 6.00 for the second.

The compounds below were run on Adjuvant arthritis (AA) in female Lewis rats (assay: Treatment of adjuvant arthritis in rats). Settings: 20 mg/kg dose, orally once a day for 7 days (day 7-14).
Type: in vivo, rat
Method: Adjuvant arthritis (AA) was induced in female Lewis rats by the intracutaneous injection (base of the tail) of 0.1 mL of a 10 mg/mL bacterial suspension made from ground, heat-killed Mycobacterium tuberculosis H37Ra suspended in incomplete Freund's adjuvant. Rats were given a test compound orally once a day for 7 days (day 7-14), starting day 7 after mycobacterium induction. The development of polyarthritis was monitored daily by macroscopic inspection and assignment of an arthritis index to each animal, during the critical period (days 10 to 25 post-immunization).
The intensity of polyarthritis was scored according to the following scheme: (a) Grade each paw from 0 to 3 based on erythema, swelling, and deformity of the joints: 0 for no erythema or swelling; 0.5 if swelling is detectable in at least one joint; 1 for mild swelling and erythema; 2 for swelling and erythema of both tarsus and carpus; and 3 for ankylosis and bony deformity. Maximum score for all 4 paws is thus 12. (b) Grade for other parts of the body: for each ear, 0.5 for redness and another 0.5 if knots are present; 1 for connective tissue swelling (saddle nose); and 1 for the presence of knots or kinks in the tail. The highest possible arthritic index is 16.
Experiments with the AA model were repeated four times. […] The arthritis score used in this model is a reflection of the inflammatory state of the structures monitored and the results therefore show the ability of the test compound to provide relief for this aspect of the pathology.

With `Cc1ccc2c(c1)/C(=N/Nc1cc(N3CCOCC3)nc(OCCN3CCOCC3)n1)CC2` [Compound 3, N-(6-Methyl-indan-1-ylidene)-N′-[6-morpholin-4-yl-2-(2-morpholin-4-yl-ethoxy)-pyrimidin-4-yl]-hydrazine] the “percent reduction in arthritic score” value was 25% reduction.

For `COc1ccc2c(c1)/C(=N/Nc1cc(N3CCOCC3)nc(OCCN3CCOCC3)n1)CC2` [Compound 9, N-(6-Methoxy-indan-1-ylidene)-N′-[6-morpholin-4-yl-2-(2-morpholin-4-yl-ethoxy)-pyrimidin-4-yl]-hydrazine], the “percent reduction in arthritic score” value was 24%.
